Reference: ChEMBL document CHEMBL2073971, “Organic anion-transporting polypeptides mediate transport of opioid peptides across blood-brain barrier” (J Pharmacol Exp Ther, 2000)

Assays:
[1] = target: T1, Solute carrier organic anion transporter family member 1A2 (OATP1A2) (Homo sapiens, UniProt P46721); assay: (§1) TP_TRANSPORTER: uptake in Xenopus laevis oocytes; format: functional, cell-based, Oocyte; conditions: Xenopus laevis oocytes expressing the transporter
T1 sequence (P46721 whole entry): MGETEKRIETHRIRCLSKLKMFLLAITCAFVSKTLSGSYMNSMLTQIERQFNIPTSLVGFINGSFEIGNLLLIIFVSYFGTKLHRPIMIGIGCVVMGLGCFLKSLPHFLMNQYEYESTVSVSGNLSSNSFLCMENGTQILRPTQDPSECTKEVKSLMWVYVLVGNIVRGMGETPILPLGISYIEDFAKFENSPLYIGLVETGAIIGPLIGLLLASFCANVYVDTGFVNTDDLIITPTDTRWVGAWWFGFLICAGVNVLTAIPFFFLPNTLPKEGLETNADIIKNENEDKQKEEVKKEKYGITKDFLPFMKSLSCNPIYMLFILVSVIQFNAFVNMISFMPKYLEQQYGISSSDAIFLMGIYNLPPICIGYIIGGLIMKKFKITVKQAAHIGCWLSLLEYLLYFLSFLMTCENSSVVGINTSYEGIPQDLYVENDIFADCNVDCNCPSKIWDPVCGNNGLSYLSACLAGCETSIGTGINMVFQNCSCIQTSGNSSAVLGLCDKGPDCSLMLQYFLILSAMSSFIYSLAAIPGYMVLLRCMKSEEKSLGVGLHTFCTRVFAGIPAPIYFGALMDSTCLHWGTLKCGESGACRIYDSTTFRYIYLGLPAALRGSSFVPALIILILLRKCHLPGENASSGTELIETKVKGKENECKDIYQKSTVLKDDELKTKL

[2] = target: T2, Solute carrier organic anion transporter family member 1A2 (Homo sapiens, UniProt P46721); assay: TP_TRANSPORTER: inhibition of Deltorphin II uptake (Deltorphin II: 50 uM, DPDPE: 500 uM) in Xenopus laevis oocytes; format: functional, cell-based; conditions: oocyte
T2 sequence (P46721 whole entry): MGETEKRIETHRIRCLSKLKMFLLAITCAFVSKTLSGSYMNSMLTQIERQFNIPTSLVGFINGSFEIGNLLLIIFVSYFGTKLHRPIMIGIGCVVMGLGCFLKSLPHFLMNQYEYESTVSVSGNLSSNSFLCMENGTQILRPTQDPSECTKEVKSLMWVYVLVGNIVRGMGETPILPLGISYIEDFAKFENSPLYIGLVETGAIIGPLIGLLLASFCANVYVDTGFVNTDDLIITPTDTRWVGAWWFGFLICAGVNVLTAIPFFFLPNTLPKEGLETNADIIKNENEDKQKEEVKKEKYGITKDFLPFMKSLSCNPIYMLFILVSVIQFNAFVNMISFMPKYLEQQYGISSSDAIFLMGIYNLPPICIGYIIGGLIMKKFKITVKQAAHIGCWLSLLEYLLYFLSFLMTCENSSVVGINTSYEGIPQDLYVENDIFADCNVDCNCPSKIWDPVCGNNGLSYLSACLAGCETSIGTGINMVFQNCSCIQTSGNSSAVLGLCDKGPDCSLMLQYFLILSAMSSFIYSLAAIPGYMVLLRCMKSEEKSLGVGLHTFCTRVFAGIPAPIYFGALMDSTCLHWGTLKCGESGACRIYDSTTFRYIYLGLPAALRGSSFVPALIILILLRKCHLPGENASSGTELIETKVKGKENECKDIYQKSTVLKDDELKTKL

[3] = target: T2, Solute carrier organic anion transporter family member 1A2; assay: TP_TRANSPORTER: inhibition of Deltorphin II uptake (Deltorphin II: 50 uM, DAMGO: 200 uM) in Xenopus laevis oocytes; format: functional, cell-based; conditions: oocyte
[4] = target: T3, Solute carrier organic anion transporter family member 1A4 (Rattus norvegicus, UniProt O35913); assay: as §1; format: functional, cell-based; conditions: oocyte
T3 sequence (O35913 whole entry): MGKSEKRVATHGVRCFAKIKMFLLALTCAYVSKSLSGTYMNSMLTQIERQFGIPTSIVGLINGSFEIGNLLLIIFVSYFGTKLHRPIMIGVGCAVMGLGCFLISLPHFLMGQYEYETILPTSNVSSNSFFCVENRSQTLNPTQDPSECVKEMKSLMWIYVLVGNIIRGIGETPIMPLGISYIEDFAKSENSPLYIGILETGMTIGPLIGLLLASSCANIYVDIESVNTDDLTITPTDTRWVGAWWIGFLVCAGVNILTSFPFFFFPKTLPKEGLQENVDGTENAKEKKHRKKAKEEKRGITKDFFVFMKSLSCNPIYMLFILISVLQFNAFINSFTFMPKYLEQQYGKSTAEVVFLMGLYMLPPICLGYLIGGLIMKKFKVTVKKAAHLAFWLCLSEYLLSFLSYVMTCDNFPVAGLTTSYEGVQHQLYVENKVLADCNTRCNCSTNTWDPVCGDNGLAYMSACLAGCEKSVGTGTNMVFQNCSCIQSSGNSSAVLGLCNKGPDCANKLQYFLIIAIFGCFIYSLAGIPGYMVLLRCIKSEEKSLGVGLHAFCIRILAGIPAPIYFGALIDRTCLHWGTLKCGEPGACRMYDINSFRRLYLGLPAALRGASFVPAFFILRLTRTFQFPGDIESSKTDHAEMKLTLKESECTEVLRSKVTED

[5] = target: T2, Solute carrier organic anion transporter family member 1A2; assay: TP_TRANSPORTER: inhibition of Deltorphin II uptake (Deltorphin II: 50 uM, E1S: 150 uM) in Xenopus laevis oocytes; format: functional, cell-based; conditions: oocyte
[6] = target: T2, Solute carrier organic anion transporter family member 1A2; assay: TP_TRANSPORTER: inhibition of Deltorphin II uptake (Deltorphin II: 50 uM, Naloxone: 1500 uM) in Xenopus laevis oocytes; format: functional, cell-based; conditions: oocyte
[7] = target: T2, Solute carrier organic anion transporter family member 1A2; assay: TP_TRANSPORTER: inhibition of Deltorphin II uptake (Deltorphin II: 50 uM, Naltrindole: 1500 uM) in Xenopus laevis oocytes; format: functional, cell-based; conditions: oocyte
[8] = substrate: CC1(C)SSC(C)(C)[C@@H](NC(=O)[C@@H](N)Cc2ccc(O)cc2)C(=O)NCC(=O)N[C@@H](Cc2ccccc2)C(=O)N[C@H]1C(=O)O; assay: as §1; format: functional, cell-based, Oocyte
[9] = substrate: CC(C)[C@H](NC(=O)[C@H](CCC(=O)O)NC(=O)[C@H](Cc1ccccc1)NC(=O)[C@@H](C)NC(=O)[C@@H](N)Cc1ccc(O)cc1)C(=O)N[C@H](C(=O)NCC(N)=O)C(C)C; assay: as §1; format: functional, cell-based, Oocyte

In the case of CC1(C)SSC(C)(C)[C@@H](NC(=O)[C@@H](N)Cc2ccc(O)cc2)C(=O)NCC(=O)N[C@@H](Cc2ccccc2)C(=O)N[C@H]1C(=O)O, the Km [1] is reported as 202 µM and the Activity [2] is reported as “inhibitor [(at a rough estimate) 50 % of control]”.

C[C@@H](NC(=O)[C@@H](N)Cc1ccc(O)cc1)C(=O)NCC(=O)N(C)[C@@H](Cc1ccccc1)C(=O)NCCO [DAMGO] was tested, and the Activity [3] was “inhibitor [(at a rough estimate) 50 % of control]”.

In the case of CC(C)[C@H](NC(=O)[C@H](CCC(=O)O)NC(=O)[C@H](Cc1ccccc1)NC(=O)[C@@H](C)NC(=O)[C@@H](N)Cc1ccc(O)cc1)C(=O)N[C@H](C(=O)NCC(N)=O)C(C)C [DELTORPHIN II], the Activity [4] is reported as “is not a substrate [-]” and the Km [1] is reported as 330 µM.

With C[C@]12CC[C@@H]3c4ccc(OS(=O)(=O)O)cc4CC[C@H]3[C@@H]1CCC2=O [ESTRONE SULFURIC ACID] the Activity [5] was “inhibitor [(at a rough estimate) 10 % of control]”.

In the case of C=CCN1CC[C@]23c4c5ccc(O)c4O[C@H]2C(=O)CC[C@@]3(O)[C@H]1C5 [NALOXONE], the Activity [6] is reported as “inhibitor [(at a rough estimate) 20 % of control]”.

In the case of Oc1ccc2c3c1O[C@H]1c4[nH]c5ccccc5c4C[C@@]4(O)[C@@H](C2)N(CC2CC2)CC[C@]314 [NALTRINDOLE], the Activity [7] is reported as “inhibitor [(at a rough estimate) 10 % of control]”.

B1: Solute carrier organic anion transporter family member 1A4 (Rattus norvegicus) (protein)
chain: MGKSEKRVATHGVRCFAKIKMFLLALTCAYVSKSLSGTYMNSMLTQIERQFGIPTSIVGLINGSFEIGNLLLIIFVSYFGTKLHRPIMIGVGCAVMGLGCFLISLPHFLMGQYEYETILPTSNVSSNSFFCVENRSQTLNPTQDPSECVKEMKSLMWIYVLVGNIIRGIGETPIMPLGISYIEDFAKSENSPLYIGILETGMTIGPLIGLLLASSCANIYVDIESVNTDDLTITPTDTRWVGAWWIGFLVCAGVNILTSFPFFFFPKTLPKEGLQENVDGTENAKEKKHRKKAKEEKRGITKDFFVFMKSLSCNPIYMLFILISVLQFNAFINSFTFMPKYLEQQYGKSTAEVVFLMGLYMLPPICLGYLIGGLIMKKFKVTVKKAAHLAFWLCLSEYLLSFLSYVMTCDNFPVAGLTTSYEGVQHQLYVENKVLADCNTRCNCSTNTWDPVCGDNGLAYMSACLAGCEKSVGTGTNMVFQNCSCIQSSGNSSAVLGLCNKGPDCANKLQYFLIIAIFGCFIYSLAGIPGYMVLLRCIKSEEKSLGVGLHAFCIRILAGIPAPIYFGALIDRTCLHWGTLKCGEPGACRMYDINSFRRLYLGLPAALRGASFVPAFFILRLTRTFQFPGDIESSKTDHAEMKLTLKESECTEVLRSKVTED
Work on B1 yielded a Km [8] of 19 µM.

B2: Solute carrier organic anion transporter family member 1A1 (Rattus norvegicus) (protein)
chain: MEETEKKIATQEGRLFSKMKVFLLSLTCACLTKSLSGVYMNSMLTQIERQFDISTSVAGLINGSFEIGNLFFIVFVSYFGTKLHRPVVIGIGCVIMGLGCLLMSLPHFFMGRYEYETTISPTGNLSSNSFLCMENRTQTLKPTQDPAECVKEMKSLMWICVMVGNIIRGIGETPIVPLGISYIEDFAKSENSPLYIGILEMGKVAGPIFGLLLGSYCAQIYVDIGSVNTDDLTITPSDTRWVGAWWIGFLVCAGVNILTSIPFFFLPKALPKKGQQENVAVTKDGKVEKYGGQAREENLGITKDFLTFMKRLFCNPIYMLFILTSVLQVNGFINKFTFLPKYLEQQYGKSTAEAIFLIGVYSLPPICLGYLIGGFIMKKFKITVKKAAYLAFCLSVFEYLLFLCHFMLTCDNAAVAGLTTSYKGVQHQLHVESKVLADCNTRCSCSTNTWDPVCGDNGVAYMSACLAGCKKFVGTGTNMVFQDCSCIQSLGNSSAVLGLCKKGPECANRLQYFLILTIIISFIYSLTAIPGYMVFLRCVKSEEKSLGVGLHTFCIRVFAGIPAPVYFGALIDRTCLHWGTLKCGQRGACRMYDINSFRHIYLGLPIALRGSSYLPAFFILILMRKFQFPGDIDSSATDHTEMMLGEKESEHTDVHGSPQVENDGELKTKL
B2 showed a Km [9] of 137 µM and a Km [8] of 48 µM.
